In patent publication US20240400549A1, “COMPOUNDS AND THEIR USES FOR TREATING NEURODEGENERATIVE DISEASE” (Academia Sinica, priority 2021, published 2024):
Peptide text beside a SMILES is read from it. * marks the point of attachment. Cbz = O=C(OCc1ccccc1)*

Legend:
Neuro-2a cells = experiment: Cytotoxicity of compounds in Neuro-2a cells; assay type: cell-based, mouse; conditions: for cytotoxicity as compared to that of compound II-1d: 5 or 10 μM concentration, Neuro-2a cells
[1] = biological target: T1, pathogenic tau protein (pTau) (Homo sapiens, UniProt P10636, P618L); experiment: Western blot of pathogenic tau protein (pTau) in SH-SY5Y-Tau-P301L cells; assay type: cell-based; conditions: 5 μM, 24 h, doxycycline-induced SH-SY5Y-Tau-P301L cells
T1 construct: expressed in transfected cells; host or cells: SH-SY5Y-Tau-P301L (doxycycline-inducible)
T1 sequence (P10636 1-441 isoform P10636-8 P301L): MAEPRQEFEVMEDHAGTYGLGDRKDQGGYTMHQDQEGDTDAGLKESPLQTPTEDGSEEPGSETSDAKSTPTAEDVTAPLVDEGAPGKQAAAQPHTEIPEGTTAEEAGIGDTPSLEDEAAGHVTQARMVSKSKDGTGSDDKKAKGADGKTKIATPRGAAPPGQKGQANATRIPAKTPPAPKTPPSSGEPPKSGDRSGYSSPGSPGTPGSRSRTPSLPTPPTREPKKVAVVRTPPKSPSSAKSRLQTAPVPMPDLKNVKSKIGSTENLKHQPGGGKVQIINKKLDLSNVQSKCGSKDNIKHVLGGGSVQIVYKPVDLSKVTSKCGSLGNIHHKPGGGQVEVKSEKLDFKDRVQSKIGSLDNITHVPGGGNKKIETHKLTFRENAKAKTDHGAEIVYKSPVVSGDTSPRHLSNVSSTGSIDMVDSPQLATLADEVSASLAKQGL
Description: The SH-SY5Y-Tau-P301L cell line (SY5Y-Tau) were cultured in DMEM supplemented with 10% FBS and incubated in a humidified incubator at 37° C. with 5% CO2. To induce the expression of pathogenic Tau (pTau), SY5Y-Tau cells were seeded at 1×10^5/60-mm plate, cultured for 2-3 days to reach 70% confluence, and treated with doxycycline (1 μg/mL) for 24 hr to induce the expression of pTau.
(§1) Alternatively, cells were lysed with RIPA lysis buffer (150 mM sodium chloride, 1% Nonidet P-40, 0.5% sodium deoxycholate, 0.1% SDS, and 50 mM Tris-HCl, pH 8.0) containing 1× protease inhibitor cocktail and 1× phosphatase inhibitor cocktail to prepare total lysates, which were rotated at 4° C. for 1 h. Protein concentrations were determined with a Bio-Rad protein assay kit (Bio-Rad, Hercules, CA, USA). Protein samples were separated on 8-10% SDS-PAGE gels and electrophoretically transferred onto PVDF membranes (Millipore, Billerica, MA, USA). The membranes were incubated overnight at 4° C. with the following primary antibodies: anti-GAPDH (GeneTex; GTX627408), anti-HTT (Habel; a custom antibody raised against protein translated from the exon 1 of HTT (designated HTTEX1), anti-pTau (MC1, a generous gift from Dr. Peter Davies, the Feinstein Institute for Medical Research, New York, USA), and anti-VCP (BD, East Rutherford, NJ, USA). Immunoreactive bands were detected by enhanced chemiluminescence (ECL; Millipore) and recorded using the UVP ChemiDoc-It Imaging System (Upland, CA, USA).
Hyperphosphorylated tau protein is a major hallmark of Alzheimer's disease and many other neurological disorders (including Huntington's disease). To investigate the effects of the compounds of formula (I) or formula (II) on the pathogenic tau protein (designated pTau), SH-SY5Y-Tau-P301L cells were treated with doxycycline (1 μg/mL) (which induced the expression of pathogenic tau protein (pTau), and the indicated compound (5 μM) for 24 h. Total protein lysates were then harvested and analyzed by Western blot analyses. Results are illustrated in FIG. 4.

109Q-HTTEX1 = biological target: T2, 109Q-HTTEX1 (Homo sapiens, UniProt P42858); experiment: Western blot of polyQ-expanded huntingtin (109Q-HTTEX1) in transfected Neuro-2a cells; assay type: cell-based; conditions: 5 μM, 24 h
T2 construct: the polyQ-expanded N terminus of HTT translated from the exon 1 of human huntingtin gene; expressed in transfected cells; host or cells: Neuro-2a (mouse neuroblastoma)
T2 sequence (P42858 with tags, fused parts or gaps): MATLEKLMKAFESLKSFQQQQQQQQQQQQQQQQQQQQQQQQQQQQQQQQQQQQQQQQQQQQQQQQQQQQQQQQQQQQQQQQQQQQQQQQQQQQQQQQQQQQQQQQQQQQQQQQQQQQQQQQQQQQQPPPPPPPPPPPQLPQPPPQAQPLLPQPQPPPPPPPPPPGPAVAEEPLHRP
Description: (§2) Mouse neuroblastoma cell line (Neuro-2a) were cultured in Dulbecco's modified Eagle's medium (DMEM; Gibco) containing 2×10^−3 M glutamine, 10% heat inactivated fetal bovine serum (FBS), and 100 U mL^−1 penicillin-streptomycin (Gibco) at 37° C. in a humidified incubator containing 5% CO2. Alternatively, Neuro-2a cells were cultured in Dulbecco's modified Eagle's medium (DMEM; Invitrogen, Carlsbad, CA, USA) supplemented with 10% heat-inactivated FBS. The cells were incubated in a humidified incubator at 37° C. with 10% CO2. Transfection was performed using T-Pro NTR II (Ji-Feng Biotechnology, Taiwan) following the manufacturer's protocol.
as §1
In this example, the effect of the present compound on huntingtin (HTT) protein (a protein known to cause Huntington's disease) was investigated. To this purpose, Neuro-2a cells were transiently transfected with pcDNA3-109Q-HTTEX1 (i.e., the polyQ-expanded N terminus of HTT translated from the exon 1 of human huntingtin gene (designated 109Q-HTTEX1)) and then exposed to the indicated compound (5 μM) for additional 24 h. Total protein lysates were harvested for Western blot analyses, and results are depicted in FIG. 3.

eGFP-C-TDP-43 aggregates = biological target: T3, eGFP-C-TDP-43 aggregates (Homo sapiens, UniProt Q13148); experiment: Filter trap assay of insoluble eGFP-C-TDP-43 aggregates in transfected Neuro-2a cells; assay type: cell-based, mouse; conditions: 5 μM
T3 construct: expressed in transfected cells; host or cells: Neuro-2a (mouse neuroblastoma)
T3 sequence (Q13148 208-414 limits assumed): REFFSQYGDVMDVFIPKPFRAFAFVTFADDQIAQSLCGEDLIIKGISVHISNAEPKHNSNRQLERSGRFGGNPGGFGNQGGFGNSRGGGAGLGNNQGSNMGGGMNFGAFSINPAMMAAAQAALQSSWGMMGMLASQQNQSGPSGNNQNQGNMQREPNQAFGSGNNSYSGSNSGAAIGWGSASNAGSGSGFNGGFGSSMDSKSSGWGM
Description: as §2
Neuro-2a cells were seeded in a 6-well plate at a concentration of 2×10^5 cells/well and incubated overnight. Once the cells were attached, Neuro-2a cells were transfected with the eGFP-C-TDP-43 plasmid (2.2 μg) using Turbofect transfection reagent (Invitrogen) and treated with or without 5 μM test compound after 2 h transfection. After incubation for another 22 h, the transfected cells were harvested by RIPA buffer containing protease inhibitor (Roche) and sonicated on ice for 10 seconds. Extracts were centrifuged at 14000 rpm for 10 min at 4° C., followed by measurement of protein concentration using a bicinchoninic acid (BCA) assay. […] Aggregated eGFP-C-TDP-43 protein trapped by the CA membranes was determined by immunoblotting. […]
In this example, the effect of the present compound on C-TDP-43 aggregates was investigated. To this purpose, the eGFP-TDP-43208-414 (hereafter referred as eGFP-C-TDP-43) expressed Neuro-2a cells were first treated with tested compound (e.g., any one of the compounds of formula (I) or (II), then, cells were lysed and the insoluble eGFP-C-TDP43 aggregates were quantified by use of filter trap assay as described in the “Materials and Methods” section; for comparison, slot blot assay was also performed by using the nitrocellulose (NC) membrane for the loading control. Results are depicted in FIG. 1.

[2] = test system: YFP—C-TDP-43 transgenic C. elegans; experiment: Swimming (thrashing) body bend assay of YFP-C-TDP-43 transgenic C. elegans; assay type: in vivo; conditions: YFP—C-TDP-43 C. elegans, swimming in buffer
Description: The YFP—C-TDP-43 transgenic strains of C. elegans generated in this study were IW33 [Psnb-l:C-TDP-43219-414-YFP (iwIs22)]. The strains of nematodes were maintained with standard procedure and grown at 20° C. as previously described (Zhang, T. et al. Hum. Mol. Genet. 2011, 20 (10), 1952). For all assays, the transgenic young two-day (80 hours) adults were used. For larvae synchronization, the eggs were isolated by lysing gravid adult worms with freshly prepared bleaching solution (0.5 mL 5 M NaOH with 1 mL bleach) and incubated in S buffer (recipe) for overnight. For drug treatments, compound I-1b and/or DMSO were solely or along with MG132 applied to fresh NGM plates prior to installing the synchronized C. elegans. The body bends of the corresponding treatment in a duration of 30 seconds of the various strains were documented through SMZ800N stereomicroscope equipped with a CCD camera (Nikon). A body bend was counted as the head of C. elegans travels across the mid-body in 1×PBS buffer. Then, the bending videos of C. elegans were analyzed by ImageJ with the wrMTrck plugin (Nussbaum-Krammer, C. I. et al. J. Vis. Exp. 2015, (95), 52321). […]
As YFP—C-TDP-43 readily forms cytosolic aggregates in nervous system, the YFP—C-TDP-43 aggregates both in the neuron processes and neuron bodies of the ventral cord were monitored. […]

SMILES	reduction of the expressed level of pTau [1]	reduction of the expression of 109Q-HTTEX1 (109Q-HTTEX1)	level of C-TDP-43 aggregate as compared to the control group (eGFP-C-TDP-43 aggregates)	also measured
CN(C)c1ccc(-c2nc3ccc(OCCOCCNc4cccc5c4C(=O)N(C4CCC(=O)NC4=O)C5=O)cc3s2)cc1 (stereo not drawn) [I-1a, 4-((2-(2-((2-(4-(dimethylamino)phenyl)benzo[d]thiazol-6-yl)oxy)ethoxy)ethyl)amino)-2-(2,6-dioxopiperidin-3-yl)isoindoline-1,3-dione]				cytotoxicity comparing to mock group of Neuro-2a cells (Neuro-2a cells; 5 μM concentration): neglectable cytotoxicity
CN(C)c1ccc(-c2nc3ccc(OCCOCCOCCOCCNc4cccc5c4C(=O)N(C4CCC(=O)NC4=O)C5=O)cc3s2)cc1 (stereo not drawn) [I-1c, 4-((2-(2-(2-(2-((2-(4-(dimethylamino)phenyl)benzo[d]thiazol-6yl)oxy)ethoxy)ethoxy)ethoxy)ethyl)amino)-2-(2,6-dioxopiperidin-3-yl)isoindoline-1,3-dione]	approximately 40%	approximately 50%		
CN(C)c1ccc(-c2nc3ccc(OCCOCCOCCOCCOCCNc4cccc5c4C(=O)N(C4CCC(=O)NC4=O)C5=O)cc3s2)cc1 (stereo not drawn) [I-1d, 4-((14-((2-(4-(dimethylamino)phenyl)benzo[d]thiazol-6-yl)oxy)-3,6,9,12-tetraoxatetradecyl)amino)-2-(2,6-dioxopiperidin-3-yl)isoindoline-1,3-dione]	approximately 40%	approximately 50%		
CNc1ccc(/C=C/c2ccc(OCCOCCOCCNc3cccc4c3C(=O)N(C3CCC(=O)NC3=O)C4=O)nc2)cc1 (stereo not drawn) [II-1b, (E)-2-(2,6-dioxopiperidin-3-yl)-4-((2-(2-(2-((5-(4-(methylamino)styryl)pyridin-2-yl)oxy)ethoxy)ethoxy)ethyl)amino)isoindoline-1,3-dione]		20%	significantly reduce	reduction of the expressed level of pTau ([1]; listed as IT-1b): negligible effect; cytotoxicity as compared to that of compound II-1d (Neuro-2a cells): less cytotoxicity
CNc1ccc(/C=C/c2ccc(OCCOCCOCCNc3cccc4c3C(=O)N(C3CCC(=O)NC3=O)C4=O)nc2)cc1 (stereo not drawn) [II-1d, (E)-2-(2,6-dioxopiperidin-3-yl)-4-((2-(2-(2-((5-(4-(methylamino)styryl)pyridin-2-yl)oxy)ethoxy)ethoxy)ethyl)amino)isoindoline-1,3-dione]	approximately 40%	approximately 50%	significantly reduce	
CNc1ccc(/C=C/c2ccc(OCCCCCCCCCCNc3cccc4c3C(=O)N(C3CCC(=O)NC3=O)C4=O)nc2)cc1 (stereo not drawn) [II-2d, (E)-2-(2,6-dioxopiperidin-3-yl)-4-((10-((5-(4-(methylamino)styryl)pyridin-2-yl)oxy)decyl)amino)isoindoline-1,3-dione]			significantly reduce	cytotoxicity as compared to that of compound II-1d (Neuro-2a cells): lower toxicity
CC(C)C[C@@H](C=O)NC(=O)[C@H](CC(C)C)NC(=O)[C@H](CC(C)C)NC(=O)OCc1ccccc1 [MG132, reference compound] (Cbz-Leu-Leu-Leu-aldehyde)				bending frequency (in words) [2]: slow bending frequency
